Reference: patent publication US20060008541A1, “Sodium channel agonist” (BIZMEDIC CO., LTD., priority 2004, published 2006)
Values joined by “and” are separate entries in the source; they are usually repeats but may differ in a detail not shown here. Equal entries are not always repeated. “Also recorded” adds a separate entry of the source.

Legend:
cardiac INa = cardiac INa (Homo sapiens, UniProt Q14524); conditions: cited from earlier work
[1] = system: inward rectifier K+ current; conditions: cited from earlier work
L-type calcium current = L-type calcium current (Homo sapiens, UniProt Q13936); conditions: cited from earlier work
rat ventricular myocytes = experiment: Action potentials in isolated rat ventricular myocytes, whole-cell current clamp
Method: Ventricular myocytes were isolated from the hearts of 3-week or 6 to 7- week-old Sprague-Dawley rats of either sex. Rats were anaesthetized with pentobarbitone sodium (i.p. 200 mg kg^−1). Isolated hearts were mounted on a Langendorff perfusion apparatus, washed at 37° C. for 5 min with a modified Tyrode solution containing (mM): 143 NaCl, 5.4 KCl, 5 HEPES, 0.5 MgCl2, 0.5 NaH2PO4, 1.8 CaCl2, 10 glucose, adjusted pH to 7.4 with NaOH, and then perfused with Ca^2+-free Tyrode solution for 5 min. After the hearts had stopped beating, Ca^2+-free Tyrode solution containing collagenase (0.5 mg ml^−1, Type II, Worthington) was perfused for 30 min. Finally, this enzyme containing solution was washed out for 5 min with a high K^+, low Cl^−KB solution containing (in mM): 70 K-glutamate, 55 KCl, 10 HEPES, 3 MgCl2, 20 taurine, 20 KH2PO4, 0.5 K-EGTA adjusted pH to 7.3 with KOH. A portion of the left ventricle was then dissected out and gently stirred with a forceps in KB solution. The isolated ventricular myocytes were kept in KB solution at 5° C. before use.
Patch pipettes (1˜2 MΩ when filled with experimental solutions) were pulled from borosilicate glass capillaries (Harvard Apparatus Ltd, UK). Conventional whole-cell patch clamp technique was used to record membrane current or voltage from single ventricular myocytes. In current-clamp mode, action potentials were evoked by a brief supra-threshold current pulse. In voltage clamp mode, access resistance was monitored throughout the experiment, and data were accepted only when the access resistance was kept below 6 MΩ. Filtered signals (10 KHz) from a patch clamp amplifier (Biologic RK 300, France), were fed into AD/DA converter (PCI-MIO-16E-4, National Instrument, USA), digitized at 20 KHz, and stored in PC for later analysis. The flow rate of the perfusion solution was 0.5˜1 ml min^−1. All electrophysiological experiments were performed at room temperature (23˜25° C.). The statistical results in the text and in figures were presented as means ±S.E.M. (n=number of cells studied). Statistical significance was accepted for p value <0.05.
APs were evoked by applying 50-70 pA depolarising current pulses (5 ms in duration) every 500 ms through a patch pipette in current clamp mode with a whole-cell configuration. The effects of dmLSB on APD were quantified in terms of APD90; defined as the APD measured at the voltage at which repolarization process is 90% complete. Time-profile of the change in APD90 values averaging from five sequential APs selected every 12 seconds was plotted in FIG. 2A as a function of whole-cell recording time.
Experimental methods for electrophysiology (recording currents and action potentials) are the same as described above for dmLSB.

Na+ current (INa) = Na+ current (INa) (Rattus norvegicus, UniProt P15389); experiment: Na+ current (INa) in rat ventricular myocytes, whole-cell voltage clamp; format: cell-based; parameters: endogenous in cells; host or cells: freshly isolated rat (Sprague-Dawley) left ventricular myocytes
Description: (§1) Statistical significance was accepted for p value <0.05.
As sodium current (INa) in ventricular myocytes is so fast and large that membrane potential is prone to escape from the command voltage, it is necessary to reduce INa for a quantitative analysis. For this purpose, small ventricular myocytes isolated from young (3-weeks-old) rats were used, and currents recorded in a modified Cs^+-based low Na^+ bath solution (Yuill et al., 2000) which contained (in mM): 130 CsCl, 10 NaCl, 2.5 MgCl2, 0.5 CaCl2, 20 HEPES, 11 glucose, in experiments shown in FIG. 5. It was reported that the kinetics of INa in the standard solution (145 mM Na^+) and in Cs-based solution (10 mM Na^+) were similar.
To examine the effect of dmLSB on inward currents, a Cs^+-rich pipette solution containing 10 mM EGTA was used. To distinguish L-type Ca^2+ currents (ICa,L) from Na^+ currents (INa), a two-step pulse protocol was used (inset of FIG. 4A). […] Although the peak amplitude of INa was unaffected by dmLSB, significant broadening of inactivation phase was observed.
To avoid the problem of voltage escape and to investigate the effects of dmLSB on INa in a quantitative manner, INa was recorded in low external [Na^+] (10 mM). It is well known that the steady-state inactivation shifted spontaneously during whole-cell mode recording. To activate INa from the potential at which inactivation is fully recovered, depolarising test pulses were applied following a 500 ms pre-pulse to −120 mV. To eliminate the contamination of ICa,L and to isolate pure INa, current response to the same test pulse from holding potential (Vh) of −40 mV, which was regarded as ICa,L, was subtracted from that from Vh of −120 mV.
Pre-pulses of 500 ms duration at variable potentials (from −150 to −15 mV in 15 mV steps) preceded a 50 ms test pulse to −20 mV. The superimposed current responses to the test pulse (−20 mV) are shown in FIG. 6A (left, control; right, 20 μM dmLSB). […] The peak amplitudes of INa are plotted against pre-pulse voltages in FIG. 6B. […] The voltages for half inactivation were −75.7±0.61 mV (n=28) in control and −77.8±1.05 mV (n=32) in the presence of dmLSB (t-test, p>0.05).
Since dmLSB specifically affected the slow phase of inactivation, the difference current represented the slow inactivating INa (ISlow) induced by dmLSB. To quantify the magnitude of the effect of dmLSB on INa, the relative amplitude of ISlow to the peak INa was plotted.
Since dmLSB is lipophilic, it is possible that it permeates the plasma membrane and binds to intracellular receptors or to Na channel protein itself. It is not clear whether its effects were mediated via a cell surface binding site, an intracellular site, or both. To test this possibility, a ventricular myocyte was perfused intracellularly with the patch pipette solution containing 20 μM dmLSB, and INa was monitored while patch pipette solution diffused-in. Meanwhile, the series resistance (RS) was kept below 7 MΩ. As soon as the whole-cell patch was established, INa was recorded at a test potential of −20 mV, and this current trace was subtracted from subsequent INa records. The amplitudes of the subtracted currents were plotted as a function of whole-cell recording time (WCR time; FIG. 8A). […] No change in the inactivation kinetics of INa was observed until dmLSB was applied externally. When 5 μM dmLSB was bath-applied at ca 13 min of WCR time to the same cell, ISlow appeared, indicative of the dmLSB effect.

[2] = target: L-type Ca2+ current (ICa,L) (Rattus norvegicus, UniProt P22002); format: cell-based; conditions: 10 μM dmLSB
[3] = system: inward rectifier K+ currents and delayed rectifier K+ currents; experiment: K+ currents in rat ventricular myocytes, voltage clamp with K+-rich pipette solution; format: cell-based; conditions: 10 μM dmLSB; I950ms
Method: as §1
The K-rich pipette solution containing (in mM): 90 K-aspartate, 30 KCl, 2 MgCl2, 5 Mg-ATP, 10 HEPES, 5 K-EGTA, 5 diTris-creatine phosphate, 2.5 Na2-creatine phosphate was used. Cs-aspartate internal solution contained (in mM): 90 Cs-aspartate, 20 CsCl, 2 MgCl2, 5 Mg-ATP, 10 HEPES, 2.5 Na2-creatine phosphate, 10 tetraethyl-ammonium chloride (TEA-Cl), 5 Cs-EGTA with pH adjusted to 7.3 using CsOH. When Cs-aspartate internal solution was used in combination with normal Tyrode (NT) bathing solution, the holding current level was inward at −80 mV, probably due to K^+ influx via inward rectifier K channels. To prevent this inward holding current, KCl in the NT solution was substituted with equimolar CsCl.
To elucidate the mechanism underlying APD change by dmLSB, voltage-clamp experiments were performed and the effects of dmLSB on the ionic currents in rat ventricular myocytes were investigated. Membrane currents were recorded in a voltage clamp mode using a patch pipette containing a K^+-rich (140 mM) internal solution. […]
However, initial amplitudes measured at 20 ms (I20ms) in the presence of dmLSB differed from those measured under control conditions, and the I-V relationship deviated inwardly by dmLSB. […]

[4] = mean value, during dmLSB superfusion, n=7

cardiac INa, sequence (Q14524 whole entry): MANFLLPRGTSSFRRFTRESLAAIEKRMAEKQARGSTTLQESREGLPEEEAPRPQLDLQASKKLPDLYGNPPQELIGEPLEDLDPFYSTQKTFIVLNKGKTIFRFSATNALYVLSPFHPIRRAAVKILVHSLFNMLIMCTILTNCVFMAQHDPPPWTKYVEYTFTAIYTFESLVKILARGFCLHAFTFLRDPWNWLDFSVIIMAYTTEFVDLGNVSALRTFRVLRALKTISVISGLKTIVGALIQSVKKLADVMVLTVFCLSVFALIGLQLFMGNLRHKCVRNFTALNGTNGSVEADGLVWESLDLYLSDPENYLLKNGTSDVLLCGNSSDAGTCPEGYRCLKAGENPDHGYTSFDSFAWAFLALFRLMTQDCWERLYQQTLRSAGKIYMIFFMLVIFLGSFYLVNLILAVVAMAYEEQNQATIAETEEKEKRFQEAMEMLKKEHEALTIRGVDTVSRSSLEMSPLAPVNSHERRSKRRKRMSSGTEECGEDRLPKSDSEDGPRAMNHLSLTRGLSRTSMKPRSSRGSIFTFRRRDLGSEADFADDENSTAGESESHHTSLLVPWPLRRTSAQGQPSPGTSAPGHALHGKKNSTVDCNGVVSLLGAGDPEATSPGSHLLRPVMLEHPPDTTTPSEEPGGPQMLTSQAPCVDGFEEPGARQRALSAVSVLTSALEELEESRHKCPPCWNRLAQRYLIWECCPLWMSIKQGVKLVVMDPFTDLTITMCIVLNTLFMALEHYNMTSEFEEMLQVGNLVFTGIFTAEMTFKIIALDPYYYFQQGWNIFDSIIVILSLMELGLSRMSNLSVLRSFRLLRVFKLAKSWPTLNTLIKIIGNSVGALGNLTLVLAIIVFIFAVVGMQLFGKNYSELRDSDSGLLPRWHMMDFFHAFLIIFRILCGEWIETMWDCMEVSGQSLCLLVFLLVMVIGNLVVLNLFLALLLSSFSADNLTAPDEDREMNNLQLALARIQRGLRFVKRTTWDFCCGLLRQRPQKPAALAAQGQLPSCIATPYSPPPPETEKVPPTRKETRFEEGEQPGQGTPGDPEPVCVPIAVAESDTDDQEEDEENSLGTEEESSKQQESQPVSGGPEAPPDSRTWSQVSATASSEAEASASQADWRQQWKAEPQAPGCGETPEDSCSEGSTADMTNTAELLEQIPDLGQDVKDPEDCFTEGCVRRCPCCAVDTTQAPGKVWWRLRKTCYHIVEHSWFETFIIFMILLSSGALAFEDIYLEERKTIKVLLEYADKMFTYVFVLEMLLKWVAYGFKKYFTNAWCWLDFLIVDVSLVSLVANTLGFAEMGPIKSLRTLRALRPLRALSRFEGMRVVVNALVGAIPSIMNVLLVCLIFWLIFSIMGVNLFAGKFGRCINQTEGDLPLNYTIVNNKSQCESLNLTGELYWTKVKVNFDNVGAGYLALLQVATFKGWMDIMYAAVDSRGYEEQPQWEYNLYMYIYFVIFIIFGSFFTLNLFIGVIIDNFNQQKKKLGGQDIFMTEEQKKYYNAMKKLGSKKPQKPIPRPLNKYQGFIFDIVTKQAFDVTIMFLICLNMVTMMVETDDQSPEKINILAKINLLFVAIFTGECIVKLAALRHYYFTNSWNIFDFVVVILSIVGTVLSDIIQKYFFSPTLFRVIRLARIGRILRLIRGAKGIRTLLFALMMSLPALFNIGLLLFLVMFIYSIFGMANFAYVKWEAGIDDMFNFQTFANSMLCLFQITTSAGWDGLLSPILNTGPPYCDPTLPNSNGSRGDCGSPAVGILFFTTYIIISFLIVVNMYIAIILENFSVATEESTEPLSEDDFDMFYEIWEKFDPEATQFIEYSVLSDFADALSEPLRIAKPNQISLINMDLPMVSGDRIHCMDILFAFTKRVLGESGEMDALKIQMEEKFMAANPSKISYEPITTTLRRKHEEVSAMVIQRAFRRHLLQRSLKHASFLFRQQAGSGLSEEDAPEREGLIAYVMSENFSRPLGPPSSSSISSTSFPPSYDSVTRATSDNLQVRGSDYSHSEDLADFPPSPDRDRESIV
Na+ current (INa), sequence (P15389 whole entry): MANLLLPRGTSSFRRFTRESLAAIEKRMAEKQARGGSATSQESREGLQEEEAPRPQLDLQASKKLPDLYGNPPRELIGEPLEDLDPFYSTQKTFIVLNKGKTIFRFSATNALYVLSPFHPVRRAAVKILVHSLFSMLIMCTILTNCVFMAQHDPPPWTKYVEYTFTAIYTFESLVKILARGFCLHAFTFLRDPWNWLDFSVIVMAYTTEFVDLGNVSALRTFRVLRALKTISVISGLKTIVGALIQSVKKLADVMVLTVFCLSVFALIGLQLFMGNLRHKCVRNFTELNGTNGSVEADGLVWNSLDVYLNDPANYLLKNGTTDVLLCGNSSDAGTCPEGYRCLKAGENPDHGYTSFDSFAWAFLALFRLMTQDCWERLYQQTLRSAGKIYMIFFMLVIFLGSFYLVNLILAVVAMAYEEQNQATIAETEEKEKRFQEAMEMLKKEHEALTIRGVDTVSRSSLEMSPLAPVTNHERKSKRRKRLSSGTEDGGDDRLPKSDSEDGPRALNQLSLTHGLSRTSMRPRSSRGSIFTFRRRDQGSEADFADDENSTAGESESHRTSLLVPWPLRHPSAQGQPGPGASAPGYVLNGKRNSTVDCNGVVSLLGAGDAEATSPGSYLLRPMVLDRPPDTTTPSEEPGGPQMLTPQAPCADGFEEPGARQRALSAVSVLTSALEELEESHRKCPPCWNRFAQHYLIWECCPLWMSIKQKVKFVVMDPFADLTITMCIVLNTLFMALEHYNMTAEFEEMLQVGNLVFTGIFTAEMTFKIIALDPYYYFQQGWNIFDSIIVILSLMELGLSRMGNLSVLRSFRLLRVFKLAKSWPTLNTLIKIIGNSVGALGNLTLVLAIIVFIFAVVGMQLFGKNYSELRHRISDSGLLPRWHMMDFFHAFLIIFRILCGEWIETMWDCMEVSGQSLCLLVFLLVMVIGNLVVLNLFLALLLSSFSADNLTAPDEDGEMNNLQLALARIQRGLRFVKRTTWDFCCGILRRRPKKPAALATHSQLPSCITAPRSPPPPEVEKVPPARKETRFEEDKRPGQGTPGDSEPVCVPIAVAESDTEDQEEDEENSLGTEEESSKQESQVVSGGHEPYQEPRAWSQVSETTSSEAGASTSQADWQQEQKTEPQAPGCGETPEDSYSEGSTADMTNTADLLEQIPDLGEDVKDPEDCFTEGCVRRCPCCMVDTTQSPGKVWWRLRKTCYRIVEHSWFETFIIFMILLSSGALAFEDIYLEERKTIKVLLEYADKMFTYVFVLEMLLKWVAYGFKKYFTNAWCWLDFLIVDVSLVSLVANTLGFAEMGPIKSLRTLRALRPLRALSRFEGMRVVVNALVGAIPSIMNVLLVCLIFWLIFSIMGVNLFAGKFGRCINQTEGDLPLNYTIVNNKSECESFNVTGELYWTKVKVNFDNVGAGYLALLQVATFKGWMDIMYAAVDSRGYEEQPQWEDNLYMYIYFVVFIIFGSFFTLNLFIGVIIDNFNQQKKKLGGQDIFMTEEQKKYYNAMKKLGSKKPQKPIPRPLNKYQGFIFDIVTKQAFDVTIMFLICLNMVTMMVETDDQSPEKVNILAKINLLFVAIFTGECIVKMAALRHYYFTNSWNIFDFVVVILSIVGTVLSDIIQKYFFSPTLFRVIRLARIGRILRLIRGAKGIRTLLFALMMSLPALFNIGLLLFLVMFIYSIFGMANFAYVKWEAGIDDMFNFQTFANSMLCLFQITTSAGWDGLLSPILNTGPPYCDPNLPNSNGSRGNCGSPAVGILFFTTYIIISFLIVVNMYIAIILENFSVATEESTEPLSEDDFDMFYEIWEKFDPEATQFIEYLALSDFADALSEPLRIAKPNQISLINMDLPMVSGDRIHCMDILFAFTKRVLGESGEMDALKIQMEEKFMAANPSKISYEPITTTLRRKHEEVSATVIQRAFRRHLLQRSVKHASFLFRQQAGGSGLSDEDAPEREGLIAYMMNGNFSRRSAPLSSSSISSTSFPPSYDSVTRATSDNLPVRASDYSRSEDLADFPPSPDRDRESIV

SMILES: N#Cc1cc2c(OCC(O)COC3CN(C(c4ccccc4)c4ccccc4)C3)cccc2[nH]1 (stereo not shown) [BDF 9148]
- persistent INa (literature) (cardiac INa): induce a persistent INa
- inward rectifier K+ current (literature) [1]: inhibit
- calcium current (literature) (L-type calcium current): inhibit

SMILES: N#Cc1cc2c(OCC(O)CN3CCN(C(c4ccccc4)c4ccccc4)CC3)cccc2[nH]1 (stereo not shown) [DPI 201-106]
- persistent INa (literature) (cardiac INa): induce a persistent INa
- inward rectifier K+ current (literature) [1]: inhibit
- calcium current (literature) (L-type calcium current): inhibit

SMILES: Cc1oc2ccccc2c1Cc1cc(I)c(OCC(=O)O)c(I)c1 [KB130015, 2-Methyl-3-(3,5-diiodo-4-carboxymethoxybenzyl)benzofuran]
- INa inactivation (literature) (cardiac INa): slowed INa inactivation
- persistent INa (literature) (cardiac INa): without developing persistent INa
- calcium current (literature) (L-type calcium current): reduces ICa

SMILES: O=C(/C=C/c1ccc(O)c2c1C(C(=O)OC(Cc1ccc(O)c(O)c1)C(=O)O)C(c1ccc(O)c(O)c1)O2)OC(Cc1ccc(O)c(O)c1)C(=O)O (stereo not shown) [LSB, lithospermate B, reference compound]
- electrophysiological effect (rat ventricular myocytes): negligible electrophysiological effect; also recorded: no effect on cardiac action potential

SMILES: COC(=O)[C@@H](Cc1ccc(O)c(O)c1)OC(=O)/C=C/c1ccc(O)c2c1[C@H](C(=O)O[C@H](Cc1ccc(O)c(O)c1)C(=O)OC)[C@@H](c1ccc(O)c(O)c1)O2 [dmLSB, dimethyl lithospermate B]
- INa inactivation kinetics (Na+ current (INa)): slowed the inactivation kinetics
- steady-state (s-s) inactivation of INa (Na+ current (INa)): not affected; also recorded: no effect on the steady-state inactivation
- peak amplitude of INa (Na+ current (INa); 10 μM dmLSB): unaffected; also recorded: decreased slightly
- time within which INa inactivation was completed (Na+ current (INa); 10 μM dmLSB, −20 mV): ≤ 50 ms
- effect of intracellular application on INa (Na+ current (INa); 20 μM dmLSB in pipette solution, n=4): essentially no effect on INa
- V1/2 of steady-state inactivation fit (Na+ current (INa); 20 μM dmLSB, n=32, control −75.7, no unit): −77.8
- voltage for half inactivation (Na+ current (INa); 20 μM dmLSB, n=32, control −75.7±0.61 mV): −77.8±1.05 mV
- k of steady-state inactivation fit (Na+ current (INa); 20 μM dmLSB, control 10.20): 9.99
- amplitude of the slow component (AS), of the peak INa (Na+ current (INa); at −20 mV, 10 μM dmLSB, bi-exponential fit, n=4): 22.1±1.02%
- time to maximal effect at each concentration (Na+ current (INa); bath application): ca. 150 seconds
- Hill coefficient (Na+ current (INa); dose-response of ISlow relative to peak INa): 1.02
- mean voltage for half-maximal activation (Na+ current (INa); in the presence of 10 μM dmLSB, low [Na+] 10 mM, n=4, control −42.35±1.1): −37.28±0.8
- EC50 (Na+ current (INa); test pulse −20 mV, Hill fit, read-out: EC50, relative amplitude of slow component (ISlow) to peak INa): 21.1 µM and 20 µM
- shift of voltage-dependence of activation (activation curve) (Na+ current (INa); to the depolarised (right) direction, 10 μM dmLSB): 5 mV
- reversibility of effect on INa (Na+ current (INa); wash-out): reversible; also recorded: completely reversed after the wash-out
- Action potential duration (APD90) (rat ventricular myocytes; 20 μM dmLSB, control 58.8±12.1 ms, n=7): 202.3 ± 9.5 ms
- early after-depolarisation (EAD) (rat ventricular myocytes; during prolonged plateau phase of AP): no early after-depolarisation was observed; also recorded: not associated with the generation of EAD; also recorded: no EAD observed
- effect on AP duration (APD) (rat ventricular myocytes; isolated rat ventricular myocytes): increases the APD
- overshoot potential (rat ventricular myocytes; [4]): 53.53±8.8 mV
- resting membrane potential (RMP) (rat ventricular myocytes; [4]): −68.46±2.6 mV
- concentration at which APD prolongation was maximal (rat ventricular myocytes; tested up to 100 μM): 20 µM
- effect on Ca2+ currents (ICa,L) [2]: no noticeable effect; also recorded: hardly affected; also recorded: No significant difference
- effect on K+ currents [3]: no noticeable effect; also recorded: no significant difference

SMILES: CC1(C)C(C(=O)OC(C#N)c2cccc(Oc3ccccc3)c2)C1(C)C (stereo not shown) [fenpropathrin]
- activation and inactivation curves of INa (literature) (cardiac INa): leftward shifts
